Read-outs that look alike come from different tables or passages of the source.
Key:
Cem/hEnt-1 = test: Cytostatic assay, CEM cells containing the hEnt1 transporter; assay type: cell-based; settings: Homo sapiens, CCRF-CEM
Text: (§1) Data are mean (±SD) of at least two to four independent experiments. Table 8 identifies the phosphoramidate motif of compounds embodying the present invention, as discussed above with respect to Table 6, but with “Naph” standing for 1-naphthyl.

Cem/hEnt-0 = test: Cytostatic assay, CEM cells lacking the hEnt1 transporter; assay type: cell-based; settings: Homo sapiens, CCRF-CEM; Table 8; read-out: IC50 Cem/hEnt-0
Text: as §1

Cem/TK^− = test: Cytostatic assay, thymidine kinase-deficient CEM/TK^− cells; assay type: cell-based, human; settings: Table 6; read-out: IC50 Cem/TK^−
Cem/0 = test: Cytostatic assay, CEM/0 cells; assay type: cell-based, human; settings: Table 6; read-out: IC50 Cem/0
Text: (§2) The cell lines employed were L1210/0 (a leukemia cell line), FM3A/0 (a breast cancer cell line), Cem/0 (an acute lymphoblastic leukemia cell line) and HeLa (a cervical cell line).

HeLa/TK^− = test: Cytostatic assay, HeLa/TK^− cells; assay type: cell-based; settings: Table 6; read-out: IC50 HeLa/TK^−
Text: as §2

HeLa = test: Cytostatic assay, HeLa cells; assay type: cell-based; settings: Table 6; read-out: IC50 HeLa
Text: as §2

L1210/TK^− = test: Cytostatic assay, thymidine kinase-deficient L1210/TK^− cells; assay type: cell-based, murine; settings: Table 6; read-out: IC50 L1210/TK^−
L1210.Hyor = test: Cytostatic assay, Mycoplasma hyorhinis-infected L1210 cells; settings: Table 7; for IC50: read-out: IC50 L1210.Hyor
Text: Murine leukaemia L1210/0 and human T-lymphocyte CEM/0 cells were obtained from the American Type Culture Collection (ATCC) (Rockville, Md.). Human glioblastoma U87 cells were kindly provided by Dr. E. Menue (Institut Pasteur, Paris, France). […] S. Eriksson (currently at Uppsala University, Uppsala, Sweden) and Prof A. Karlsson (Karolinska Institute, Stockholm, Sweden). […] All cells were maintained in Dulbecco's modified Eagle's medium (DMEM) (Invitrogen, Carlsbad, Calif.) with 10% foetal bovine serum (FBS) (Biochrom AG, Berlin, Germany), 10 mM Hepes and 1 mM Sodium Pyruvate (Invitrogen). Cells were grown at 37° C. in a humidified incubator with a gas phase of 5% CO2.
Monolayer cells (U87 and U87.Hyor) were seeded in 48-well microtiter plates (Nunc™, Roskilde, Denmark) at 10,000 cells/well. After 24 hours, an equal volume of fresh medium containing the test compounds was added. On day 5, cells were trypsinized and counted in a Coulter counter (Analis, Suarlée, Belgium). Suspension cells (L1210/0, L1210/TK^−, L1210.Hyor, CEM/0, CEM/TK^−) were seeded in 96-well microtiter plates (Nunc™) at 60,000 cells/well in the presence of a given amount of the test compounds. The cells were allowed to proliferate for 48 h (L1210) or 72 hours (CEM) and were then counted in a Coulter counter.
Samples were also assayed for their % retention of activity in mycoplasma infected cells.
The L1210/0 cell cultures were infected with the mycoplasma species M. hyorhinis (cells designated: L1210.Hyor).

L1210/0 = test: Cytostatic assay, L1210/0 cells; assay type: cell-based, murine; settings: read-out: IC50 L1210/0
Text: as §2

| Structure (SMILES) | IC50 (Cem/hEnt-1; Table 8, read-out: IC50 Cem/hEnt-1) | IC50 (Cem/hEnt-1; in the presence of NBMPR, read-out: IC50 Cem/hEnt-1 + NBMPR) | IC50 (Cem/hEnt-1; in the presence of dipyridamole, read-out: IC50 Cem/hEnt-1 + dipyridamole) | IC50 (Cem/hEnt-0) | IC50 (Cem/TK^−) | IC50 (Cem/0) | IC50 (HeLa/TK^−) | IC50 (HeLa) | IC50 (L1210/TK^−) | IC50(L1210.Hyor)/IC50(L1210/0) (L1210.Hyor) | IC50 (L1210.Hyor) | IC50 (L1210/0; Table 6) | IC50 (L1210/0; Table 7) |
| --- | --- | --- | --- | --- | --- | --- | --- | --- | --- | --- | --- | --- | --- |
| O=c1[nH]c(=O)n([C@H]2C[C@H](O)[C@@H](COP(=O)(O)O)O2)cc1F [5-FdUMP, 5-fluoro-2′-deoxyuridine-5′-monophosphate, reference compound] | 50 ± 20 nM | 1060 nM | 1740 nM | 3600 ± 690 nM |  |  |  |  |  |  |  |  |  |
| CCCCCCOC(=O)C(C)NP(=O)(OCC1OC(n2cc(F)c(=O)[nH]c2=O)CC1O)Oc1cccc2ccccc12 (stereo not shown) [Nap Hex Ala] |  |  |  |  | 650 ± 340 nM | 80 ± 20 nM | 1800 ± 100 nM | 39 ± 18 nM | 76 ± 15 nM | 0.69 | 2.2 ± 0.28 nM | 7.2 nM | 3.2 ± 0.35 nM |
| CCCCCOC(=O)C(C)(C)NP(=O)(OCC1OC(n2cc(F)c(=O)[nH]c2=O)CC1O)Oc1cccc2ccccc12 (stereo not shown) [Nap Pnt DMG] |  |  |  |  | 5400 ± 1100 nM | 140 nM | 2300 ± 100 nM | 120 ± 30 nM | 300 ± 130 nM | 0.42 | 19 ± 2.8 nM | 37 ± 10 nM | 45 ± 2.1 nM |
| CCCCCOC(=O)C(CC(C)C)NP(=O)(OCC1OC(n2cc(F)c(=O)[nH]c2=O)CC1O)Oc1cccc2ccccc12 (stereo not shown) [Nap Pnt Leu] |  |  |  |  | 15000 ± 4000 nM | 71 ± 8 nM | 7500 ± 400 nM | 39 ± 14 nM | 1200 ± 400 nM | 1.13 | 35 ± 10 nM | 17 ± 1 nM | 31 ± 2 nM |
| CCCOC(=O)C(C)NP(=O)(OCC1OC(n2cc(F)c(=O)[nH]c2=O)CC1O)Oc1cccc2ccccc12 (stereo not shown) [Nap Pr Ala] |  |  |  |  | 1100 ± 200 nM | 140 ± 10 nM | 2500 ± 100 nM | 110 ± 30 nM | 160 ± 70 nM | 1.2 | 36 ± 6.4 nM | 21 ± 12 nM | 30 ± 0.35 nM |
| CC(C)CC(NP(=O)(OCC1OC(n2cc(F)c(=O)[nH]c2=O)CC1O)Oc1ccccc1)C(=O)OCc1ccccc1 (stereo not shown) [Ph Bn Leu] |  |  |  |  | 16000 ± 1000 nM | 240 ± 40 nM | 5600 ± 300 nM | 67 ± 42 nM | 2000 ± 300 nM | 3.2 | 170 ± 47 nM | 44 ± 25 nM | 54 ± 2.1 nM |
| O=C(OCc1ccccc1)C(Cc1ccccc1)NP(=O)(OCC1OC(n2cc(F)c(=O)[nH]c2=O)CC1O)Oc1ccccc1 (stereo not shown) [Ph Bn Phe] |  |  |  |  | 11000 ± 3000 nM | 250 ± 20 nM | 12000 ± 2000 nM | 14 ± 7 nM | 39000 ± 4000 nM | 35 | 560 ± 23 nM | 36 ± 10 nM | 16 ± 1.4 nM |
| CCOC(=O)C(NP(=O)(OCC1OC(n2cc(F)c(=O)[nH]c2=O)CC1O)Oc1ccccc1)C(C)C (stereo not shown) [Ph Et Val] |  |  |  |  | > 250000 nM | 1000 ± 100 nM | 27000 ± 7000 nM | 1200 ± 300 nM | 42000 ± 2000 nM | 22 | 4400 ± 1100 nM | 160 ± 50 nM | 200 ± 33 nM |
| CCCCCOC(=O)C(CCSC)NP(=O)(OCC1OC(n2cc(F)c(=O)[nH]c2=O)CC1O)Oc1ccccc1 (stereo not shown) [Ph Pnt Met] |  |  |  |  | 13000 ± 1000 nM | 350 ± 130 nM | 7100 ± 1200 nM | 150 nM | 2200 ± 500 nM | 3.2 | 410 ± 210 nM | 110 ± 60 nM | 130 ± 7.8 nM |

— patent US10993957B2 (NuCana plc, priority 2011, dated 2021)
